The source of these data is DBAASP.

≈ marks a conversion by molar mass, not a printed value. Bounds are passed on as bounds.

Some test systems named below: Streptococcus sanguinis; Staphylococcus aureus; Acinetobacter baumannii; Klebsiella pneumoniae; Escherichia coli UB1005; Escherichia coli K99; Escherichia coli; Escherichia coli K88; Pseudomonas aeruginosa; Bacillus subtilis.
Common to all, as to test: ≥ marks a high value that may be exact or a test limit, other limits are often not marked, values filed in µg/mL are converted to µM
Assay [1] relates to Aeromonas salmonicida CIP 103209T.
Assay [2] relates to Escherichia coli CIP 54.8T.
In assay [3] the test system is Listeria monocytogenes CIP 110871.
The test system of assay [4] is Enterococcus faecalis CIP 76.117.
In assay [5] the test system is Bacillus megaterium CIP 51.17.
Assay [6] has as its system Staphylococcus aureus CIP 53.156.
In assay [7] the test system is Salmonella typhimurium CIP 103446.
Assay [8] has as its system Escherichia coli ATCC 25922.
In assay [9] the test system is Salmonella enterica subsp. enterica serovar Typhimurium ATCC 14028.
The subject of assay [10] is Pseudomonas aeruginosa ATCC 27853.
The test system of assay [11] is Pseudomonas aeruginosa CICC 21630.
In assay [12] the test system is Pseudomonas aeruginosa PAO1.
The subject of assay [13] is Pseudomonas aeruginosa CICC 21625.
In assay [14] the test system is Salmonella enterica subsp. enterica serovar Typhimurium C77-31.
Assay [15] relates to Salmonella enterica subsp. enterica serovar Pullorum C79-13.
Assay [16] has as its system Staphylococcus aureus ATCC 25923.
The subject of assay [17] is Listeria monocytogenes EGD.
Assay [18] concerns Staphylococcus aureus ATCC BAA-44.
The subject of assay [19] is Klebsiella pneumoniae ATCC 13883.
Assay [20] deals with Enterococcus faecalis ATCC 29212.
Assay [21] concerns Streptococcus pyogenes ATCC 19615.
The test system of assay [22] is Staphylococcus epidermidis ATCC 51625.

In general, MIC refers to the lowest concentration that inhibits growth of the organism. For `NC(=O)[C@H](Cc1ccccc1)NC(=O)[C@H](Cc1ccccc1)NC(=O)[C@H](Cc1ccccc1)NC(=O)[C@H](Cc1ccccc1)NC(=O)[C@H](Cc1ccccc1)NC(=O)[C@H](Cc1ccccc1)NC(=O)[C@@H](N)Cc1ccccc1` [FFFFFFF], the minimal inhibitory concentration (MIC) against Streptococcus sanguinis and in the assay with Staphylococcus aureus was 3.3 µM (≈ 3.46 µg/mL) throughout.
As for `CC[C@H](C)[C@H](NC(=O)[C@H](CC(C)C)NC(=O)[C@H](Cc1cnc[nH]1)NC(=O)[C@H](Cc1ccccc1)NC(=O)[C@H](CO)NC(=O)[C@@H](NC(=O)[C@H](CO)NC(=O)CN)[C@@H](C)O)C(=O)N[C@@H](Cc1ccc(O)cc1)C(=O)N[C@@H](CC(N)=O)C(=O)N[C@@H](CCCCN)C(=O)N[C@@H](Cc1c[nH]c2ccccc12)C(=O)N[C@@H](Cc1ccccc1)C(=O)N[C@@H](C)C(=O)N[C@H](C(=O)N[C@@H](CCCCN)C(=O)N[C@@H](CCCN=C(N)N)C(=O)N[C@@H](CCCN=C(N)N)C(=O)N[C@@H](CCCN=C(N)N)C(=O)N[C@@H](CCCCN)C(=O)N[C@@H](CCCN=C(N)N)C(=O)O)C(C)C` [GSTSFHLIYNKWFAVKRRRKR], the MIC in assay [1] is 5 µM (≈ 13.3 µg/mL); in assay [2], 3.16 µM (≈ 8.38 µg/mL); in assay [3], not below 35.4 µM; in assay [4] it was not below 86.6 µM; in assay [5], 3.16 µM (≈ 8.38 µg/mL); in [6], 5.1 µM (≈ 13.5 µg/mL). In assay [7], this compound had an MIC not below 50 µM.
`CC[C@H](C)[C@H](N)C(=O)N[C@@H](CCCCN)C(=O)N1CCC[C@H]1C(=O)N[C@H](C(=O)N[C@H](C(=O)N[C@@H](CCCCN)C(=O)N1CCC[C@H]1C(=O)N[C@H](C(=O)N[C@H](C(=O)N[C@@H](CCCCN)C(=O)N1CCC[C@H]1C(=O)N[C@H](C(=O)N[C@H](C(=O)N[C@@H](CCCCN)C(=O)N1CCC[C@H]1C(=O)N[C@H](C(N)=O)[C@@H](C)CC)[C@@H](C)CC)[C@@H](C)CC)[C@@H](C)CC)[C@@H](C)CC)[C@@H](C)CC)[C@@H](C)CC` [IKPIIKPIIKPIIKPI]: the MIC in assay [8] is more than 64 µM; against Acinetobacter baumannii, not below 64 µM; in assay [9], more than 64 µM; in assay [10] it was more than 64 µM; with Klebsiella pneumoniae it was more than 64 µM; in assay [11], not below 64 µM. In addition, the MIC in the assay with Escherichia coli UB1005 was not below 64 µM; in assay [12], more than 64 µM; in assay [13] it was not below 64 µM; in assay [14], not below 64 µM; against Escherichia coli K99, not below 64 µM; against Escherichia coli it was more than 64 µM. In addition, the MIC was not below 64 µM with Escherichia coli K88, more than 64 µM against Pseudomonas aeruginosa and not below 64 µM in assay [15].
Consider `CC(C)C[C@H](N)C(=O)N[C@@H](Cc1ccccc1)C(=O)N[C@@H](Cc1ccccc1)C(=O)N[C@@H](Cc1ccccc1)C(=O)N[C@@H](Cc1ccccc1)C(=O)N[C@@H](Cc1ccccc1)C(N)=O` [LFFFFF], for which the MIC is not below 32.6 µM against Streptococcus sanguinis and 29.4 µM (≈ 25.5 µg/mL) with Staphylococcus aureus.
`CC(C)C[C@H](NC(=O)[C@H](CC(C)C)NC(=O)[C@H](CCC(N)=O)NC(=O)[C@H](CCCCN)NC(=O)[C@H](CC(C)C)NC(=O)[C@H](CCCCN)NC(=O)[C@H](CCCCN)NC(=O)[C@@H](N)CC(C)C)C(=O)NCC(=O)N[C@@H](CCCCN)C(=O)N[C@@H](CC(C)C)C(=O)N[C@@H](CO)C(=O)N[C@@H](CCC(=O)O)C(=O)N[C@@H](Cc1ccccc1)C(=O)N[C@@H](C)C(=O)N[C@@H](C)C(=O)N[C@@H](C)C(=O)N[C@@H](Cc1ccccc1)C(=O)N[C@H](C(=O)N[C@@H](C)C(N)=O)C(C)C` [LKKLKQLLGKLSEFAAAFVA]: the MIC in [8] was found to be 32 µM (≈ 69.6 µg/mL); in assay [16], 32 µM (≈ 69.6 µg/mL); in assay [10] it was 16 µM (≈ 34.8 µg/mL); in assay [17] it was 8 µM (≈ 17.4 µg/mL).
For `CC(C)C[C@H](NC(=O)[C@H](C)NC(=O)[C@@H](NC(=O)[C@H](C)NC(=O)[C@H](CC(C)C)NC(=O)[C@H](CCCCN)NC(=O)[C@H](Cc1ccccc1)NC(=O)[C@H](CCCCN)NC(=O)[C@H](C)NC(=O)[C@@H](N)CO)C(C)C)C(=O)NCC(=O)N[C@@H](CCC(N)=O)C(=O)N[C@@H](Cc1ccccc1)C(=O)N[C@@H](CCCCN)C(=O)N[C@@H](CCC(=O)O)C(=O)N[C@@H](CCCCN)C(=O)N[C@@H](CC(C)C)C(=O)N[C@@H](CC(C)C)C(=O)N[C@@H](CC(C)C)C(=O)N[C@@H](C)C(N)=O` [SAKFKLAVALGQFKEKLLLA], the minimal inhibitory concentration (MIC) in [17] is not below 128 µM.
On to `CC(C)C[C@H](NC(=O)[C@H](CO)NC(=O)[C@H](CCCN=C(N)N)NC(=O)[C@H](CCCCN)NC(=O)[C@@H](NC(=O)[C@@H](NC(=O)CNC(=O)[C@H](CCCN=C(N)N)NC(=O)[C@H](Cc1cnc[nH]1)NC(=O)[C@H](Cc1c[nH]c2ccccc12)NC(=O)[C@H](Cc1ccccc1)NC(=O)[C@H](Cc1cnc[nH]1)NC(=O)[C@H](Cc1ccc(O)cc1)NC(=O)[C@@H](N)Cc1ccc(O)cc1)C(C)C)[C@@H](C)O)C(=O)N[C@@H](CO)C(=O)N1CCC[C@H]1C(=O)N[C@@H](Cc1cnc[nH]1)C(=O)N[C@@H](CCCN=C(N)N)C(=O)N1CCC[C@H]1C(=O)N[C@@H](CCCN=C(N)N)C(=O)N[C@@H](Cc1cnc[nH]1)C(=O)N[C@@H](CO)C(=O)N[C@@H](CCCN=C(N)N)C(=O)O` [YYHFWHRGVTKRSLSPHRPRHSR], for which the MIC in [18] came out at 6 µM (≈ 17.8 µg/mL); in assay [16], 4 µM (≈ 11.8 µg/mL); in assay [9], 4 µM (≈ 11.8 µg/mL); in assay [10] it was 4 µM (≈ 11.8 µg/mL); in assay [19], 2 µM (≈ 5.92 µg/mL); in the assay with Bacillus subtilis it was 4 µM (≈ 11.8 µg/mL). The MIC turned out to be 4 µM (≈ 11.8 µg/mL) in assay [20], 6 µM (≈ 17.8 µg/mL) in assay [21], 4 µM (≈ 11.8 µg/mL) in the assay with Escherichia coli and 6 µM (≈ 17.8 µg/mL) in [22].
